Measured values reported in ChEMBL document CHEMBL1201862, “PubChem BioAssay data set” (2004).
The source made the active and inactive calls.

Legend:
[1] = target: Heat shock protein HSP 90-alpha (Homo sapiens, UniProt P07900); assay: Luminescence-based dose response biochemical high throughput screening assay for inhibitors of the Heat Shock Protein 90 (HSP90). [Related pubchem assays: 1831 (Summary AID.), 1846 (Confirmation screen.), 1789 (Primary screen.)]
Mucolipin-3 = target: T1, Mucolipin-3 (Homo sapiens, UniProt Q8TDD5); assay: Dose response cell-based high-throughput screening assay for agonists of the transient receptor potential channel ML3 (TRPML3). [Related pubchem assays: 1526, 1424, 1448 ]; format: functional
T1 sequence (Q8TDD5 whole entry): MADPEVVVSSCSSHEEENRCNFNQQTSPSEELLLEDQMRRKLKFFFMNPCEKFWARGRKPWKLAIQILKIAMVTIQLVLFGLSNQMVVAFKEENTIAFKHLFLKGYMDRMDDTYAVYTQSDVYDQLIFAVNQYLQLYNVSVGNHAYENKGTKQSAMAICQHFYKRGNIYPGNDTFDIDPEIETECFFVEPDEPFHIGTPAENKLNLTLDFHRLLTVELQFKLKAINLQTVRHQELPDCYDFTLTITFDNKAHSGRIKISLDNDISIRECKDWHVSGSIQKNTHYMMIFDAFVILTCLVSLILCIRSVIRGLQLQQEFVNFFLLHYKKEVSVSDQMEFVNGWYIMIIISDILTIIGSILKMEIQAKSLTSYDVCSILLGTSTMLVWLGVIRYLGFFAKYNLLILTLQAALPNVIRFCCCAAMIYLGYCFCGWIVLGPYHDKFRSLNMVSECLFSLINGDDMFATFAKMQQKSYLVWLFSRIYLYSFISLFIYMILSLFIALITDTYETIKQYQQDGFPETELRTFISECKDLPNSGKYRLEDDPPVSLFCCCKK

Ion channel NompC = Ion channel NompC (Danio rerio, UniProt Q7T1G6); assay: Fluorescence counterscreen assay for TRPML3 agonists: dose response cell-based high-throughput screening assay to identify agonists of the transient receptor potential channel N1 (TRPN1). [Related pubchem assays: 1526, 1424, 1448 ]; format: functional
[2] = target: Voltage-gated inwardly rectifying potassium channel KCNH2 (Homo sapiens, UniProt Q12809); assay: concentration-dependent hERG rescue from blockers – cell-based, thallium flux, dose response (AID 2121); format: ADME
[3] = target: T2, Tyrosine-protein phosphatase non-receptor type 7 (Homo sapiens, UniProt P35236); assay: HePTP tyrosine phosphatase activity blockers – biochemical, absorbance, leukemia target, primary screen (AID 521); format: functional
T2 sequence (P35236 whole entry): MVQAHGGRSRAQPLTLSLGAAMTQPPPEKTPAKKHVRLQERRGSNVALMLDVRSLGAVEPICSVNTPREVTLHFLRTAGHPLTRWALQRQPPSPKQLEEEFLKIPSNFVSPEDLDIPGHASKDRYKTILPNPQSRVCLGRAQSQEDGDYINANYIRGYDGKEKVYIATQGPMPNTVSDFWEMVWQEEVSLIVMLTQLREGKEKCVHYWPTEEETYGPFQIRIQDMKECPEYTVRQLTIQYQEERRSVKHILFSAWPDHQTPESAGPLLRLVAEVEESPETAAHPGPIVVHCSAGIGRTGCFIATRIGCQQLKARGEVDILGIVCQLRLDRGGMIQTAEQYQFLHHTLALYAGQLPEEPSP

[4] = target: Lytic switch protein BZLF1 (Epstein-Barr virus (strain B95-8) (HHV-4) (Human herpesvirus 4), UniProt P03206); assay: inhibition of BZLF1 ZTA DNA binding – biochemical, fluorescence polarization, Epstein-Barr virus, 1536-well, counter-screen for EBNA-1 inhibitor project, dose response (AID 2377); set-up: species or system human gammaherpesvirus 4;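 also: fluorescence polarization of Cy5-labelled ZRE DNA probe bound by purified Zta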
[5] = target: Epstein-Barr nuclear antigen 1 (Epstein-Barr virus (strain B95-8) (HHV-4) (Human herpesvirus 4), UniProt P03211); assay: inhibition of EBV nuclear antigen 1 DNA binding – biochemical, fluorescence polarization, 1536-well, dose response (AID 2381); set-up: species or system human gammaherpesvirus 4;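 also: fluorescence polarization of a Cy5 DNA probe bound by EBNA-1 protein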
[6] = viability of HCT116 lacking mutant beta-catenin – cell-based, human colon tumor, dose response (AID 1045); format: functional;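 also: HCT116 colon tumor cells with beta catenin knocked out; cells exposed to compound for 60 hours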
INS1 = assay: INS-1E survival protection against cytokine death – cell-based, luminescence, retest, dose response (AID 449756); format: functional; conditions: Rattus norvegicus;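 also: cell death triggered by IL-1 beta plus TNF-alpha plus IFN-gamma mixture; protective hits raise ATP signal compared with cytokine alone wells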
[7] = viability loss of HPDE-C7K cells – cell-based, fluorescence, HTS, primary screen (AID 431); format: functional; conditions: Homo sapiens
[8] = decrease of insulin promoter-GFP reporter – imaging, high-content screening, mouse beta cells (AID 1628); format: functional; conditions: MIN6
[9] = viability of PTEN-deleted HCT116 cells – cell-based, HCT116 PTEN knockout, dose response (AID 1047); format: functional;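 also: HCT116 colon tumor cells with PTEN knocked out; cells exposed to compound for 60 hours before readout; potency for loss of cell viability measured by luminescence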
Nonstructural protein 1 = Nonstructural protein 1 (Influenza A virus, UniProt Q194T2); format: functional, Influenza A virus (A/California/07/2009(H1N1))
[10] = MIN6 cell viability loss – mouse insulinoma, cytotoxicity control, dose response (AID 2122); format: functional;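 also: confirmatory high-throughput counterscreen run to flag cytotoxic compounds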
[11] = HPDE-C7 pancreatic duct cell viability loss – fluorescence, HTS (AID 430); format: functional, cell-based; conditions: Homo sapiens
[12] = off-target signal loss in HeLa-CEM21 co-culture – HeLa F-luc CTL cells, cherry-picked, counter-screen for HIV-1 Env fusion inhibitor project, dose response (AID 652040); format: functional, cell-based;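 also: potency for signal decrease marking cytotoxic or nonspecific inhibition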
[13] = blockers of HIV-1 envelope-mediated cell-cell fusion – cherry-pick, dose response (AID 652057); format: functional, cell-based
[14] = HIV-1 AD8 envelope cell-cell fusion blockers – cherry-pick, dose response (AID 652062); format: functional, cell-based;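 also: luciferase signal from cell-cell fusion driven by HIV-1 clade B AD8 Env; potency is for inhibitors of fusion seen as a drop in luminescence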
[15] = blockade of melanocortin 4 receptor signaling – cell-based, plate reader, cherry pick, counter-screen for LGR2 antagonist project, dose response (AID 743444); format: functional;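 also: transfected HEK 293 cells stimulated with alpha-MSH peptide; potency of inhibitors of the alpha-MSH evoked signal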
[16] = luciferase reporter signal reduction – luminescence, H4-C neuroglioblastoma cells, dose response (AID 2458); format: functional, cell-based;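 also: H4 neuroglioblastoma cells stably carrying a luciferase reporter gene fusion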
Jurkat = assay: blockers of NF-kB activation in T cells – Jurkat, luciferase reporter, luminescence, B- and T-cell, dose response (AID 489004); format: functional, cell-based; conditions: Homo sapiens;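 also: NF-kB luciferase reporter Jurkat cells stimulated with PMA plus ionomycin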
[17] = HEK-293T viability loss, compound-treated – cell-based, uHTS hits, cytotoxicity control for B/T-cell NF-kB inhibitor project, dose response (AID 489019); format: functional;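 also: IC50 reflects cytotoxicity as loss of cell viability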
cells = format: functional, cell-based
[18] = alpha-synuclein stem-loop luciferase translation blockers – H4 neuroglioma cells, luminescence, confirmation (AID 1988); format: functional, cell-based
[19] = blockers of HIV-1 ZM109 envelope-driven cell-cell fusion – HeLa effector, CEM target cells, luciferase, cherry-pick, dose response (AID 652058); format: functional, cell-based;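 also: luciferase signal from HIV-1 Env mediated cell-cell fusion of effector and target cells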
[20] = blockers of bursicon-stimulated LGR2 cAMP reporter – cell-based, HEK293, CRE-luciferase reporter, cherry pick, set 2, dose response (AID 743343); format: functional;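 also: transfected cells were stimulated with diluted bursicon conditioned medium after compound addition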
[21] = alpha-synuclein stem-loop translation blockers – luminescence, H4 neuroglioblastoma cells, dose confirmation, confirmation (AID 2454); format: functional, cell-based;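 also: H4 neuroglioblastoma cells carrying an alpha-synuclein 5'UTR luciferase reporter; potency for inhibition of the luciferase signal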
[22] = target: T3, Oxysterols receptor LXR-beta (Homo sapiens, UniProt P55055); assay: LXR agonists, Gal4 luciferase reporter, dose response, counter-screen for ssDAF-12 agonist project, cell-based, luminescence, HEK293, S. stercoralis campaign (AID 720737); format: functional; conditions: read-out: IC50 (the source's name)
T3 sequence (P55055 whole entry): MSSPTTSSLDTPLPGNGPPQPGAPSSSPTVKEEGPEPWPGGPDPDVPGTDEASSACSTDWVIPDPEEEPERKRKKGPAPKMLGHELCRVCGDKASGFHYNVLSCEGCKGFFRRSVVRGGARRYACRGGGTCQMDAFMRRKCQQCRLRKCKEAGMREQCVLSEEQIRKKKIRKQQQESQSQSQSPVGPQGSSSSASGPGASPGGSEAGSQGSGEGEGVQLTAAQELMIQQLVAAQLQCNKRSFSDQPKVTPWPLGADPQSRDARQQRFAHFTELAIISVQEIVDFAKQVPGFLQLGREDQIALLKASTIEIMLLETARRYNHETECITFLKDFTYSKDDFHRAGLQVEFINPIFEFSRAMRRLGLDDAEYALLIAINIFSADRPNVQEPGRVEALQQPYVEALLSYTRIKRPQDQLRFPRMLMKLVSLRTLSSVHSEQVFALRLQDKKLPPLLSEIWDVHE

[23] = Luminescence-based cell-based high throughput dose response assay to identify activators of the DAF-12 from the parasite S. stercoralis (ssDAF-12).; format: functional

Chain of Nonstructural protein 1 (Q194T2 whole entry): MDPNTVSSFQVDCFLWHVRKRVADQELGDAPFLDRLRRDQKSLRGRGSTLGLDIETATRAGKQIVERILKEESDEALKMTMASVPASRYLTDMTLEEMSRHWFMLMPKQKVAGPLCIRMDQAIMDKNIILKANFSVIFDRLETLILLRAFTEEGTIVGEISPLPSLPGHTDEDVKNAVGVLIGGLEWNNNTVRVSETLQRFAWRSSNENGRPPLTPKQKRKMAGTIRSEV
Chain of Voltage-gated inwardly rectifying potassium channel KCNH2 (Q12809 whole entry): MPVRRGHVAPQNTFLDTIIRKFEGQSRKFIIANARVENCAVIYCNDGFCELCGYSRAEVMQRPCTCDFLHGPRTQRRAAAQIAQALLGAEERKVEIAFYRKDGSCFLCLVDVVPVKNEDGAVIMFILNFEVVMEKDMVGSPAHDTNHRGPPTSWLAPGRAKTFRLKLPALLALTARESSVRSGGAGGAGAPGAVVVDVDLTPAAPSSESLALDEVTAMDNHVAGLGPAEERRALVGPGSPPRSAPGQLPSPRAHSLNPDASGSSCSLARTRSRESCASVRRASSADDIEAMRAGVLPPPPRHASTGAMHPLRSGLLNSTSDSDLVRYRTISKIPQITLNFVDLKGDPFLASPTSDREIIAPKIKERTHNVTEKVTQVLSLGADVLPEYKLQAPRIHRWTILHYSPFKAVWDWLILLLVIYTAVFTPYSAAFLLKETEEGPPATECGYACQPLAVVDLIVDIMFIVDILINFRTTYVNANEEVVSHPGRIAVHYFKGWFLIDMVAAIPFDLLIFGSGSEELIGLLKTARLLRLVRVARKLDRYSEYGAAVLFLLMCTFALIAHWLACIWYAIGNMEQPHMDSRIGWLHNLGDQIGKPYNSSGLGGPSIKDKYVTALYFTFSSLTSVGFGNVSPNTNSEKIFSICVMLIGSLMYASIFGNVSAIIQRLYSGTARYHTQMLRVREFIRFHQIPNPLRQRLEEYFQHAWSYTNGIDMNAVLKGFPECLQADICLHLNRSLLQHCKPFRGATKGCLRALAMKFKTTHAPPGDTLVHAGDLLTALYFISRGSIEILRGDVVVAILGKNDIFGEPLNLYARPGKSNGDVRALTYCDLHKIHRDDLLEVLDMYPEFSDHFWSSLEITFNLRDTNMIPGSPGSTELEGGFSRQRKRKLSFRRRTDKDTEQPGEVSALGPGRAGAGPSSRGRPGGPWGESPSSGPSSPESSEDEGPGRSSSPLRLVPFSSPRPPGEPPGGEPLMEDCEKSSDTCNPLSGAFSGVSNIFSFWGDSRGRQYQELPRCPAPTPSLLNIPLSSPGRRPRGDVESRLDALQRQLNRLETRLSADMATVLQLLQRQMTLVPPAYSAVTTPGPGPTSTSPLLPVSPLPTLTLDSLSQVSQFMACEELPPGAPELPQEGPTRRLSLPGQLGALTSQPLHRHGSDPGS
Chain of Lytic switch protein BZLF1 (P03206 whole entry): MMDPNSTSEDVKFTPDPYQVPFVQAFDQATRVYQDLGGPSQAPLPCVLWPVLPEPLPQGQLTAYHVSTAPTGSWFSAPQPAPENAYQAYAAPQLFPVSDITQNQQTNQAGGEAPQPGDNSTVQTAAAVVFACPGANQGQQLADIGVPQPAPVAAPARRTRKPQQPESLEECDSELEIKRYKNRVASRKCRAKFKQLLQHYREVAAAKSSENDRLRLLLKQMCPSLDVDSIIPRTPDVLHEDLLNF
Chain of Ion channel NompC (Q7T1G6 whole entry): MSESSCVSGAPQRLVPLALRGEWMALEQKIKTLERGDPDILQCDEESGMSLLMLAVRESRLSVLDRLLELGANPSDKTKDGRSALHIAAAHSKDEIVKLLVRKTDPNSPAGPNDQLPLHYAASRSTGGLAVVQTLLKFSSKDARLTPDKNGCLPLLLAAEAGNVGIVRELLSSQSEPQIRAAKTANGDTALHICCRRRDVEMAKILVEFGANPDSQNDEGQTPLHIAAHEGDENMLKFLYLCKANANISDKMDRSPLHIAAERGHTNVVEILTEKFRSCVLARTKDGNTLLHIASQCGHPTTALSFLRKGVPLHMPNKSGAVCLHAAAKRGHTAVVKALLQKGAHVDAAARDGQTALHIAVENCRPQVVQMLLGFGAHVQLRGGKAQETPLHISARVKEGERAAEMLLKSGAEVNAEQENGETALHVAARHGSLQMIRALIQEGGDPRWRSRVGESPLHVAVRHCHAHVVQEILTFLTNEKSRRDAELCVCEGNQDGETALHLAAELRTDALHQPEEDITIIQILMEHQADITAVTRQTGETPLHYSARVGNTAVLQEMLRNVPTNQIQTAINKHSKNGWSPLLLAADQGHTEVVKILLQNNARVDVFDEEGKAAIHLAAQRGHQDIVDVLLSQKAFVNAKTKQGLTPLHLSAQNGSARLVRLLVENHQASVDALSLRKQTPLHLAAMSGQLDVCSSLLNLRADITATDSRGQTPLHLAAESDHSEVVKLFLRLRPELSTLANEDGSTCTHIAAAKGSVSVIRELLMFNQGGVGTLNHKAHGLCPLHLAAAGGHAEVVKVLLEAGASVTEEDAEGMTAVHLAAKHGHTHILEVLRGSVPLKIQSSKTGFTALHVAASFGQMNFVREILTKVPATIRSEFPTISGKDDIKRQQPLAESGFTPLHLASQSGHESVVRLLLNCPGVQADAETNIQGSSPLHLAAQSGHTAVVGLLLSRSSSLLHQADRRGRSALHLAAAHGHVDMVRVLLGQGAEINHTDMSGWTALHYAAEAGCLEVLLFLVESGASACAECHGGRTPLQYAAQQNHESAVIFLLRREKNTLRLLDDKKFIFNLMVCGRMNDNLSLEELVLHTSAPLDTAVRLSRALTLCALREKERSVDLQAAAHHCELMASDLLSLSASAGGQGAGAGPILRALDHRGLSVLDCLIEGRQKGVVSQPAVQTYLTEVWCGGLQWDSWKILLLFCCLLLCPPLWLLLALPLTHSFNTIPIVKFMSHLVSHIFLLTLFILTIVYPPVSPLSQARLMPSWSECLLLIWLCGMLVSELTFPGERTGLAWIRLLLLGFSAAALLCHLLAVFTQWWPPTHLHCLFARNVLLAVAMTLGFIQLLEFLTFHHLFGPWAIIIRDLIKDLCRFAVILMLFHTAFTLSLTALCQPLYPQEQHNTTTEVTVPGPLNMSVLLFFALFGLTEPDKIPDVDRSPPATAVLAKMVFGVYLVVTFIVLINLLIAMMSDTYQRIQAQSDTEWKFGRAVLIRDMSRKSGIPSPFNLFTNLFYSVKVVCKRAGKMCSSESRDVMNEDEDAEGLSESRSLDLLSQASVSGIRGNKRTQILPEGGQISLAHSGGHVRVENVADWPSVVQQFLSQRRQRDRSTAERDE
Chain of Epstein-Barr nuclear antigen 1 (P03211 whole entry): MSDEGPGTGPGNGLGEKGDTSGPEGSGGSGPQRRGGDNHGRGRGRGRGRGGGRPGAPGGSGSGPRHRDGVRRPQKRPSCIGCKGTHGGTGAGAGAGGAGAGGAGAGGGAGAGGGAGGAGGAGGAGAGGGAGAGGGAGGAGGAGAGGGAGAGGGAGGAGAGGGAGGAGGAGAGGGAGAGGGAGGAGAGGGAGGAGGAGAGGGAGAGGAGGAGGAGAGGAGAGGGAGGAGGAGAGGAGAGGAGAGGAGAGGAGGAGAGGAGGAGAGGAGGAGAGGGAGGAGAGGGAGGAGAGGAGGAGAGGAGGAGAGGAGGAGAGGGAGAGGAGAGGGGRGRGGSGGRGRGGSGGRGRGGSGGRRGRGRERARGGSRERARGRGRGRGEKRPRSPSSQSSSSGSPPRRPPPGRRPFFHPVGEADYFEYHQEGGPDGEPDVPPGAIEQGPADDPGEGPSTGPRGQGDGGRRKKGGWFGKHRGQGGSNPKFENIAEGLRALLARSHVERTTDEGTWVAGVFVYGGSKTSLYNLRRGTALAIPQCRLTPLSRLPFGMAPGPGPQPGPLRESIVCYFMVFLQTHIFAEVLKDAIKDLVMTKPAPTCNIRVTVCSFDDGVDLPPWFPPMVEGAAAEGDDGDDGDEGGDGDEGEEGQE

Compound: Cc1ccc(OCc2ccc(C(=O)O)o2)cc1C
- IC50 [1]: 1.75 µM (active)

Compound: Cc1ccc(S(=O)(=O)Nc2cc(C(F)(F)F)ccc2N2CCOCC2)c(C)c1
- EC50 (Mucolipin-3): 2.48 µM (active)
- EC50 (Ion channel NompC): > 29.9 µM (not active)

Compound: CS(=O)(=O)c1sc(C(=O)NC(=S)Nc2ccc(OC(F)(F)F)cc2)c2c1C=CCC2
- EC50 [2]: 1.01 µM (active)

Compound: CCn1c(COc2ccccc2)nnc1SCC(=O)NC1CCCCC1
- IC50 [3]: > 100 µM (not active)

Compound: CCN(CC)S(=O)(=O)c1ccc(C(=O)Nc2nnc(N=C(S)Nc3ccccc3)s2)cc1
- IC50 [4]: > 111 µM (not active)
- IC50 [5]: 6.46 µM (active)

Compound: N=c1c2c3c(sc2ncn1CCN1CCOCC1)CCCC3
- IC50 [3]: > 100 µM (not active)

Compound: CCOC(=O)C(C(C)=O)c1c(Br)c(O)c(O)c2c(C(=O)c3ccc(C)cc3)coc12 (stereo unspecified)
- EC50 [6]: 15.8 µM (active)
- AC50 (INS1): 3.56 µM (active)
- EC50 [7]: 3.75 µM (active)
- IC50 [8]: 4.26 µM (active)
- EC50 [9]: 18.8 µM (active)
- IC50 (Nonstructural protein 1): > 100 µM (active)
- IC50 [10]: 3.43 µM (active)
- EC50 [11]: 3.41 µM (active)

Compound: Cc1ccc(C(=O)CN2C(=O)c3ccccc3S2(=O)=O)cc1
- AC50 [12]: 3.11 µM (active)
- AC50 [13]: 1.81 µM (active)
- IC50 [1]: 4.64 µM (active)
- AC50 [14]: 4.12 µM (active)
- AC50 [15]: 0.548 µM (active)
- EC50 [16]: 0.263 µM (active)
- IC50 (Jurkat): 1.57 µM (active)
- IC50 [17]: > 80 µM (inactive)
- EC50 (cells): 0.315 µM (active)
- EC50 [18]: < 0.1 µM (active)
- AC50 [19]: 17.9 µM (active)
- AC50 [20]: 0.594 µM (active)
- EC50 [21]: 0.363 µM (active)

Compound: COc1cc(SC)ccc1C(=O)Nc1ccc2c(c1)CCC2
- EC50 [22]: > 67.5 µM (inactive)
- IC50 [23]: > 67.5 µM (inactive)
